Measured values from US20210317092A1 (BAYER PHARMA AKTIENGESELLSCHAFT, priority 2016, published 2021).
pIC50: −log10 of the molar value. Read-outs that look alike come from different tables or passages of the source.

Target: T1, human Bradykinin B1 receptor (Homo sapiens, UniProt P46663)
T1 construct: host or cells: CHO-K1
T1 sequence (P46663 1-353): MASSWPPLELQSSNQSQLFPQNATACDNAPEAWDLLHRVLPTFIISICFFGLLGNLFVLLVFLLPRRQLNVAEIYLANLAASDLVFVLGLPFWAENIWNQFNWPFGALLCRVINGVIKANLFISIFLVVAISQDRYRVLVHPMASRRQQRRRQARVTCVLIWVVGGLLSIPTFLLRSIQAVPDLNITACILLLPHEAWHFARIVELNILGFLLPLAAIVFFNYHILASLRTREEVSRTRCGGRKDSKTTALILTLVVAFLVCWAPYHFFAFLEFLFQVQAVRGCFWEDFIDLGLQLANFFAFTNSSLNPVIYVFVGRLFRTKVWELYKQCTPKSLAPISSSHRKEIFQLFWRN
Experiment: Calcium flux Assay (FLIPR) with recombinant CHO-K1 cells expressing human Bradykinin B1 receptor, in presence (hB1 IC50) or absence (hB1 free IC50) of 0.1% BSA
Assay type: cell-based

[1] = in absence of 0.1% BSA, read-out: hB1 free IC50
[2] = in presence of 0.1% BSA, read-out: hB1 IC50

| SMILES | pIC50 [1] | pIC50 [2] |
| --- | --- | --- |
| O=C(Nc1ccc(-c2ccc(C(F)(F)F)nc2)c(-c2nnn[nH]2)c1F)C1(c2ccc(OC(F)(F)F)cc2F)CC1 [Example 301, N-{2-fluoro-3-(1H-tetrazol-5-yl)-4-[6-(trifluoromethyl)pyridin-3-yl]phenyl}-1-[2-fluoro-4-(trifluoromethoxy)phenyl]cyclo-propanecarboxa-mide] | 7.44 |  |
| O=C(Nc1cc(Cl)c(-c2ccc(C(F)(F)F)nc2)c(-c2nnn[nH]2)c1)C1(c2cccc(Cl)c2)CC1 [Example 302, 1-(3-chlorophenyl)-N-{3-chloro-5-(1H-tetrazol-5-yl)-4-[6-(trifluoromethyl)pyridin-3-yl]phenyl}cyclopro-panecarboxa-mide] | 7.36 |  |
| O=C(Nc1cc(Cl)c(-c2ccc(C(F)(F)F)nc2)c(-c2nnn[nH]2)c1)C1(c2ccc(F)c(F)c2)CC1 [Example 303, N-{3-chloro-5-(1H-tetrazol-5-yl)-4-[6-(trifluoromethyl)pyridin-3-yl]phenyl}-1-(3,4-difluorophenyl)cy-clopropanecar-boxamide] | 7.28 |  |
| O=C(Nc1cc(Cl)c(-c2ccc(C(F)(F)F)nc2)c(-c2nnn[nH]2)c1)C1(c2ccc(C(F)(F)F)cc2F)CC1 [Example 304, N-{3-chloro-5-(1H-tetrazol-5-yl)-4-[6-(trifluoromethyl)pyridin-3-yl]phenyl}-1-[2-fluoro-4-(trifluoromethyl)phenyl]cyclopro-panecarboxamide] | 7.73 |  |
| CCOc1ccc(-c2ccc(NC(=O)C(C)(C)C)cc2-c2nnn[nH]2)cn1 [Example 309, N-[4-(6-ethoxypyridin-3-yl)-3-(1H-tetrazol-5-yl)phenyl]-2,2-dimethylpropan-amide] | 6.23 |  |
| COc1ccc(-c2ccc(NC(=O)C3(c4cccc(Cl)c4)CC3)cc2-c2nnn[nH]2)cc1 [Example 314, 1-(3-chlorophenyl)-N-[4′-methoxy-2-(1H-tetrazol-5-yl)biphenyl-4-yl]cyclopropane-carboxamide] |  | 6.47 |
| COc1ccc(-c2ccc(NC(=O)C3(c4cccc(Cl)c4)CC3)cc2-c2nnn[nH]2)cn1 [Example 316, 1-(3-chlorophenyl)-N-[4-(6-methoxypyridin-3-yl)-3-(1H-tetrazol-5-yl)phenyl]cyclopro-panecarboxa-mide] |  | 6.48 |
| CS(=O)(=O)c1cncc(-c2ccc(NC(=O)C3(c4cccc(Cl)c4)CC3)cc2-c2nnn[nH]2)c1 [Example 319, 1-(3-Chlorophenyl)-N-{4-[5-(methylsulfonyl)pyridin-3-yl]-3-(1H-tetrazol-5-yl)phenyl}cyclopro-panecarboxa-mide] | 6.36 | 6.28 |
| O=C(Nc1ccc(-c2ccc(N3CCOCC3)cc2)c(-c2nnn[nH]2)c1)C1(c2cccc(Cl)c2)CC1 [Example 322, 1-(3-chlorophenyl)-N-[4′-(morpholin-4-yl)-2-(1H-tetrazol-5-yl)biphenyl-4-yl]cyclopropane carboxamide] |  | 6.62 |
| N#Cc1ccc(-c2ccc(NC(=O)C3(c4cccc(Cl)c4)CC3)cc2-c2nnn[nH]2)cn1 [Example 323, 1-(3-chlorophenyl)-N-[4-(6-cyanopyridin-3-yl)-3-(1H-tetrazol-5-yl)phenyl]cyclopro-panecarboxa-mide] |  | 6.45 |
| N#Cc1cc(-c2ccc(NC(=O)C3(c4cccc(Cl)c4)CC3)cc2-c2nnn[nH]2)ccc1Cl [Example 325, N-[4′-chloro-3′-cyano-2-(1H-tetrazol-5-yl)biphenyl-4-yl]-1-(3-chlorophenyl)cy-clopropanecarbox-amide] |  | 5.76 |
| O=C(Nc1ccc(-c2cc3c(Cl)nccc3o2)c(-c2nnn[nH]2)c1)C1(c2cccc(Cl)c2)CC1 [Example 332, N-[4-(4-chlorofuro[3,2-c]pyridin-2-yl)-3-(1H-tetrazol-5-yl)phenyl]-1-(3-chlorophenyl)cy-clopropanecarbox-amide] | 6.72 | 6.56 |
| COc1ncc(-c2ccc(NC(=O)C3(c4cccc(Cl)c4)CC3)cc2-c2nnn[nH]2)cn1 [Example 333, 1-(3-chlorophenyl)-N-[4-(2-methoxypyrimidin-5-yl)-3-(1H-tetrazol-5-yl)phenyl]cyclopro-panecarboxa-mide] |  | 6.38 |
| N#Cc1ncc(-c2ccc(NC(=O)C3(c4cccc(Cl)c4)CC3)cc2-c2nnn[nH]2)cn1 [Example 334, 1-(3-chlorophenyl)-N-[4-(2-cyanopyrimidin-5-yl)-3-(1H-tetrazol-5-yl)phenyl]cyclopro-panecarboxa-mide] | 7.00 | 6.03 |

Results, then the compound that gave them:

| pIC50 [1] | pIC50 [2] | SMILES |
| --- | --- | --- |
| 7.34 | 6.88 | CCOc1ccc(-c2ccc(NC(=O)C3(c4ccccc4)CC3)cc2-c2nnn[nH]2)cn1 [Example 306, N-[4-(6-ethoxypyridin-3-yl)-3-(1H-tetrazol-5-yl)phenyl]-1-phenylcyclopropane-carboxamide] |
|  | 6.72 | O=C(Nc1ccc(-c2ccc(OCC(F)(F)F)nc2)c(-c2nnn[nH]2)c1)C1(c2cccc(Cl)c2)CC1 [Example 313, 1-(3-chlorophenyl)-N-{3-(1H-tetrazol-5-yl)-4-[6-(2,2,2-trifluoroethoxy)-pyridin-3-yl]phenyl}cyclopropanecarboxamide] |
|  | 6.63 | COc1ccc(-c2ccc(NC(=O)C3(c4cccc(Cl)c4)CC3)cc2-c2nnn[nH]2)cc1F [Example 315, 1-(3-chlorophenyl)-N-[3′-fluoro-4′-methoxy-2-(1H-tetrazol-5-yl)biphenyl-4-yl]cyclopropane-carboxamide] |
|  | 7.28 | O=C(Nc1ccc(-c2ccc(OC(F)(F)F)cc2)c(-c2nnn[nH]2)c1)C1(c2cccc(Cl)c2)CC1 [Example 317, 1-(3-chlorophenyl)-N-[2-(1H-tetrazol-5-yl)-4′-(trifluoromethoxy)biphenyl-4-yl]cyclopropane-carboxamide] |
|  | 7.23 | CCOc1cncc(-c2ccc(NC(=O)C3(c4cccc(Cl)c4)CC3)cc2-c2nnn[nH]2)c1 [Example 318, 1-(3-chlorophenyl)-N-[4-(5-ethoxypyridin-3-yl)-3-(1H-tetrazol-5-yl)phenyl]cyclopro-panecarboxa-mide] |
|  | 6.68 | COc1cc(-c2ccc(NC(=O)C3(c4cccc(Cl)c4)CC3)cc2-c2nnn[nH]2)ccn1 [Example 320, 1-(3-Chlorophenyl)-N-[4-(2-methoxypyridin-4-yl)-3-(1H-tetrazol-5-yl)phenyl]cyclopro-panecarboxa-mide] |
|  | 6.82 | O=C(Nc1ccc(-c2cnc3ccoc3c2)c(-c2nnn[nH]2)c1)C1(c2cccc(Cl)c2)CC1 [Example 321, 1-(3-chlorophenyl)-N-[4-(furo[3,2-b]pyridin-6-yl)-3-(1H-tetrazol-5-yl)phenyl]cyclopro-panecarboxa-mide] |
| 6.85 | 6.80 | CN1CCN(c2ccc(-c3ccc(NC(=O)C4(c5cccc(Cl)c5)CC4)cc3-c3nnn[nH]3)cc2)CC1 [Example 330, 1-(3-chlorophenyl)-N-[4′-(4-methylpiperazin-1-yl)-2-(1H-tetrazol-5-yl)biphenyl-4-yl]cyclopropane carboxamide] |
| 6.79 | 6.69 | CS(=O)(=O)Nc1ccc(-c2ccc(NC(=O)C3(c4cccc(Cl)c4)CC3)cc2-c2nnn[nH]2)cc1 [Example 331, 1-(3-chloropehnyl)-N-{4′-[(methylsulfonyl)amino]-2-(1H-tetrazol-5-yl)biphenyl-4-yl}cyclopropane carboxamide] |
